ChEMBL document CHEMBL1681639, “Discovery of substituted 3-(phenylamino)benzoic acids as potent and selective inhibitors of type 5 17β-hydroxysteroid dehydrogenase (AKR1C3)” (Bioorg Med Chem Lett, 2011)

Target: T1, Aldo-keto reductase family 1 member C3 (Homo sapiens, UniProt P42330)
T1 sequence (P42330 whole entry): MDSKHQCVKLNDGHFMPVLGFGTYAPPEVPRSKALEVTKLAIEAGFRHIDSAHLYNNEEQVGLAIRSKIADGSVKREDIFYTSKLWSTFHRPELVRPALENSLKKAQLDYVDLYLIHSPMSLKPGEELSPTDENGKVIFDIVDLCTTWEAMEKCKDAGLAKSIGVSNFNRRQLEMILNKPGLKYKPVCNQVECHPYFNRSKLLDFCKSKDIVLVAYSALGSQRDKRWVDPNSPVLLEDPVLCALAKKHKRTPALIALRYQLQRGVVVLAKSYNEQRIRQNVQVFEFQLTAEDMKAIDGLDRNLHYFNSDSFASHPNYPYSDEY
Assay: Inhibition of AKR1C3 by fluorimetric method

Row | SMILES | IC50
1 | O=C(O)c1cccc(Nc2ccc(C(F)(F)F)cc2)c1 | 62 nM
2 | O=C(O)c1cccc(Nc2ccc(Cl)cc2)c1 | 130 nM
3 | COc1ccc(Nc2cccc(C(=O)O)c2)cc1 | 490 nM
4 | Cc1ccc(Nc2cccc(C(=O)O)c2)cc1 | 700 nM
5 | O=C(O)c1ccccc1Nc1cccc(C(F)(F)F)c1 [FLUFENAMIC ACID] | 51 nM
